# In publication PMC5286506 (Scientific Reports, 2017):
# Where two headings read alike, the source gives them in different places.
# How the values were obtained:
# [1] = test system: R5-tropic HIV-1BaL; assay: HIV-1BaL infection of activated PBMCs, HIV-1 gag p24 ELISA on day 7; format: cell-based
# Method: (§1) Mock-infected PBMCs were used as the negative control.
# (§2) The antiviral activity of each drug, M48U1 and tenofovir, formulated in 0.25% HEC hydrogel was determined in an activated PBMC model. […] This mixture was added to PBMCs activated with IL-2 and PHA for a two-hour incubation at 37 °C. To evaluate the antiviral effect of M48U1, the level of HIV-1 gag p24 protein in the culture supernatant was determined at seven days post-infection using an ELISA. A significant decrease (p < 0.05; Mann Whitney test) in the HIV-1 p24 level was found (Fig. 1).
# (§3) Figure 1 M48U1 and tenofovir formulated in 0.25% HEC each inhibited the replication of both R5-tropic HIV-1BaL and X4-tropic HIV-1IIIb in activated PBMCs. […] After this incubation, these solutions were used to resuspend activated PBMCs for 2 hours at 37 °C. HIV-1 replication was monitored by a HIV-1 p24 ELISA assay on the cell culture supernatants performed on day 7 post-infection. […] Three experiments in triplicate were performed.
# [2] = test system: X4-tropic HIV-1IIIb; assay: HIV-1IIIb infection of activated PBMCs, HIV-1 gag p24 ELISA on day 7; format: cell-based
# Method: as §1, §2, §3
# [3] = test system: pREJO.c/2864 T/F IMC; assay: T/F IMC infection of TZM-bl cells, luciferase readout; format: cell-based, HIV-1; details: pREJO.c/2864, TZM-bl cells
# Method: (§4) TZM-bl cells (1 × 10^4/well in a 100 μL volume) in 10% D-MEM growth medium containing DEAE-dextran (Sigma) at a final concentration of 7.5 μg/mL were then added to the plate. Assay controls included replicate wells of TZM-bl cells alone in HEC 0.25% (cell control) and TZM-bl cells with virus (virus control). Following 72 hours of incubation at 37 °C, 150 μL of culture medium were removed from each well and replaced with 100 μL of Bright-Glo luciferase reagent (Promega). After 2-minutes of incubation, 150 μL of the cell lysate were transferred to a 96-well white solid plate and luminescence was measured using a Victor Light 2030 luminometer (Perkin Elmer). The percentage of infection for each T/F strain was calculated by comparing the relative luminescence units (RLU) of the virus control wells after subtraction of the cell control RLU[44].
# (§5) Figure 2 M48U1 in 0.25% HEC and tenofovir in 0.25% HEC each inhibited several laboratory strains and patient-derived HIV-1 isolates. Treatment with either 1 μM M48U1/0.25% (A) or 5 μM tenofovir/0.25% HEC (B) inhibited the replication of all tested laboratory and patient-derived strains. The HIV-1 strain tropism was determined with a sequencing analysis for the patient-derived strains. […] HIV-1 replication was monitored by the HIV-1 p24 ELISA assay using cell culture supernatants obtained on day 7 post-infection. […]
# [4] = test system: pTHRO.c/2626 T/F IMC; assay: as above; format: cell-based, HIV-1; details: pTHRO.c/2626, TZM-bl cells
# Method: as §4, §5
# [5] = test system: HIV-1BaL; assay: HIV-1BaL-infected cervicovaginal histoculture (EpiVaginal), proviral DNA qPCR; format: cell-based; details: day 4 post-infection, vs HEC-treated infected samples
# Method: The EpiVaginal Tissue Model (VLC-100FT; MatTek Corporation, Ashland, MA, USA) was maintained in a 24-well plate according to the manufacturer’s instructions. […] Subsequently, the wells were challenged with HIV-1BaL (25 ng p24/tissue well) for 24 hours. Mock-infected 0.25% HEC-treated wells were used as negative control. The apical surface of each tissue was washed twice with PBS after incubation with HIV-1BaL and the same formulations were added on day 1 for 24 hours. The underlying media was changed every day, and cervicovaginal tissues were harvested on day 4 post-infection.
# Total DNA was extracted and purified from the tissues using the QIAamp DNA Mini Kit (Qiagen, Hilden, Germany). Proviral DNA was quantified by real-time quantitative PCR assay using the HIV-1 DNA qPCR kit (Diatheva, Fano, Italy) based on SYBR Green chemistry as indicated by the manufacturer. […] Total DNA amount was determined by spectrophotometry. The amplification was carried out as follows: an initial cycle of denaturation step at 95 °C for 15 minutes, followed by 10 cycles of denaturation at 95 °C for 15 seconds and annealing/extension at 68 °C for 35 seconds, and a final 35 cycles of denaturation at 95 °C for 15 seconds and annealing/extension with fluorescence acquisition at 68 °C for 35 seconds. […]
# [6] = MTT tissue viability in the EpiVaginal tissue model; format: cell-based; details: human, EpiVaginal tissue model (cervicovaginal cultures), 20 μM tenofovir and/or 6.7 μM M48U1 in 0.25% HEC
# Method: (§6) At the end of the incubation at 37 °C, the hydrogel was discarded and the cervicovaginal cultures were washed with PBS to remove any residual hydrogel. The cervicovaginal cultures were analyzed using the MTT kit protocol (MatTek Corporation). Cell cultures incubated with sterile distilled water were employed as a negative control. Triton X-100 (1%)-treated cultures were used as the positive control. The LDH cytotoxicity detection kit (TaKaRa Bio Inc, Japan) was used to detect LDH release from the tissues according to the manufacturer’s protocols. […] After incubation, the concentration of IL-1α in the culture medium was measured using the IL-1α ELISA Kit, according to the manufacturer’s instructions (Bender Medsystem, Wien, Austria). The concentration of IL-1α was calculated by interpolation from a standard calibration curve.
# [7] = test system: EpiVaginal tissue model; details: human, 20 μM
# Method: as §6
# [8] = test system: HIV-1BaL, HIV-1IIIb, HIV-1ADA, HIV-1RU132, HIV-1ARV-2, HIV-1CBL4; assay: Laboratory HIV-1 strains in activated PBMCs, p24 ELISA on day 7; format: cell-based; details: 1 μM M48U1 or 5 μM tenofovir in 0.25% HEC; p < 0.05
# Method: as §1
# (§7) Figure 2 M48U1 in 0.25% HEC and tenofovir in 0.25% HEC each inhibited several laboratory strains and patient-derived HIV-1 isolates. Treatment with either 1 μM M48U1/0.25% (A) or 5 μM tenofovir/0.25% HEC (B) inhibited the replication of all tested laboratory and patient-derived strains. The HIV-1 strain tropism was determined with a sequencing analysis for the patient-derived strains. The combination of the two HIV-1 drugs inhibited HIV-1 replication independent of the HIV-1 strain tropism. HIV-1 replication was monitored by the HIV-1 p24 ELISA assay using cell culture supernatants obtained on day 7 post-infection. […] Three experiments in triplicate were performed. Analysis of antiretroviral activity of 1 μM M48U1 in 0.25% HEC (C) or 5 μM tenofovir in 0.25% HEC (D) performed in TZM-bl cells infected with pREJO.c/2864 and pTHRO.c/2626 T/F IMCs. […] Each sample was performed in triplicate and was repeated in three independent experiments.
# [9] = test system: HIV-1 subtype B and C isolates (HIV-1AMBR5N, HIV-1FBR5N, HIV-1SLR5N, HIV-1ARR5X4, HIV-1CSBX4); assay: Patient-derived HIV-1 isolates in activated PBMCs, p24 ELISA on day 7; format: cell-based; details: 1 μM M48U1 (five isolates) or 5 μM tenofovir (three isolates from naïve patients) in 0.25% HEC; p < 0.05
# Method: as §1, §7
# [10] = test system: HSV-2; design: method as in PMID 20643915, PMID 22018238, PMID 20709216; details: CAPRISA 004 trial; cited from earlier work
# [11] = in vitro; details: human, activated PBMCs
# [12] = 1 μM M48U1 or 5 μM tenofovir in 0.25% HEC
# [13] = 6.7 μM M48U1 or 20 μM tenofovir in 0.25% HEC
compound,measurement,setting,value
C[C@H](Cn1cnc2c(N)ncnc21)OCP(=O)(O)O [tenofovir],inhibition of HIV-1BaL replication,[1]; [12],over 90%
same,IC50,"[1]; Human immunodeficiency virus 1, PBMC, 168 h, HIV-1BaL, activated PBMCs, drug in 0.25% HEC, p24 day 7 post-infection",1.22 µM
same,inhibition of HIV-1IIIb replication,[2]; [12],over 90%
same,IC50,"[2]; Human immunodeficiency virus 1, PBMC, 168 h, HIV-1IIIb, activated PBMCs, drug in 0.25% HEC, p24 day 7 post-infection",1.08 µM
same,reduction in viral replication,[3]; [12],86.8%
same,reduction in viral replication,[3]; [13],95%
same,reduction in viral replication,[4]; [12],78%
same,reduction in viral replication,[4]; [13],93%
same,"decrease in the amount of proviral HIV-1 DNA (folds of inhibition, mean)","[5]; 0.67 μM M48U1, 2 μM tenofovir or both in 0.25% HEC",11 fold
same,"decrease in the amount of proviral HIV-1 DNA (folds of inhibition, mean)","[5]; 6.7 μM M48U1, 20 μM tenofovir or both in 0.25% HEC",~45 fold
same,"viability at 1 h, 20 μM",[6]; 1 hour,95%
same,"viability at 4 h, 20 μM",[6]; 4 hours,96%
same,"viability at 18 h, 20 μM",[6]; 18 hours,88%
same,"viability at 96 h, 20 μM",[6]; 96 hours,104%
same,LDH release (Abs),[7]; 1 h,0.207 ± 0.06 Abs
same,LDH release (Abs),[7]; 4 h,0.381 ± 0.05 Abs
same,LDH release (Abs),[7]; 18 h,0.922 ± 0.2 Abs
same,LDH release (Abs),[7]; 96 h,1.498 ± 0.13 Abs
same,replication of laboratory HIV-1 strains (p24 in cell supernatant),[8],suppressed the replication of all HIV-1 strains tested
same,infection of PBMCs with patient-derived HIV-1 subtype B and C isolates,[9],inhibited viral replication in all three cases
same,decrease of HSV-2 infections,[10],51%
same,CC50 at 7 days,[11],> 20 µM
